Source: PubChem BioAssay AID1417 (Emory University Molecular Libraries Screening Center, 2008)

molecular target: Induced myeloid leukemia cell differentiation protein Mcl-1 (Homo sapiens) (UniProt Q07820); assay: Mcl-1 Noxa peptide disruption concentration-response – biochemical, TR-FRET, dose response (AID 1417); details: Mcl-1/Noxa peptide interaction, cell-free TR-FRET (terbium/rhodamine), 2 h; measured here: absolute IC50
Sequence (Q07820 whole entry, looked up): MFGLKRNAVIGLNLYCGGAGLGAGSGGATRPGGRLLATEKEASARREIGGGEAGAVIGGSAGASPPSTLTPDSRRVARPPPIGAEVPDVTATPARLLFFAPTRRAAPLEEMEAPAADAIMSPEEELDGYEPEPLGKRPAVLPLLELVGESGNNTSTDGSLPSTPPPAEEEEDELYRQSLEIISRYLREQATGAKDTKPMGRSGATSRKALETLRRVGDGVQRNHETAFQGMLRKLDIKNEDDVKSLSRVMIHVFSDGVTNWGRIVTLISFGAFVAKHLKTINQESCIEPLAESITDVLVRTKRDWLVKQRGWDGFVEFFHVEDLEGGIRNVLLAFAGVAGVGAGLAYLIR

| Compound | IC50 [µM] |
| --- | --- |
| O=c1c2c3c(sc2[nH]c(=S)n1Cc1ccco1)CCC3 | 1.42 |
| O=C(NCc1ccccn1)c1ccc2nc(-c3ccco3)c(-c3ccco3)nc2c1 | 1.38 |
| CC(/C=C/c1ccco1)=N\NC(=O)c1cc(C)[nH]n1 | 5.64 |
| O=[N+]([O-])c1cc(/C=N/Nc2nc3ccccc3[nH]2)c(O)cc1O | 13.3 |
| O=C1C(=Cc2cccn2-c2ccccc2)C(=O)c2ccccc21 | 5.19 |
| O=C(Nc1cccc(S(=O)(=O)NC2=NCCC2)c1)c1cc(-c2ccco2)nc2ccccc12 | < 0.4 |
| COc1ccc(/C=C2/C(=O)N(c3nc4ccccc4s3)N=C2CSc2ccc(Cl)cc2)cc1 | < 0.4 |
| COc1ccc(C2=CC(=O)C=CC2=O)cc1 | < 0.4 |
| Cc1ccc(CSc2nnc(SCC(=O)N/N=C/c3c[nH]c4ccccc34)s2)cc1 | 10.1 |
| CCC(=O)N(CC)C1=C(O)c2ccccc2C(=O)C1=O | 0.997 |
| Cc1nn(CC(=O)Nc2ccc(N(C)C)cc2)c(C)c1[N+](=O)[O-] | > 54 |
| CCOC(=O)c1c(C)oc2c1c(C(c1ccncc1)N1CCOCC1)c(O)c1ccccc12 (stereo not drawn) | < 0.4 |
| Cc1ccc2c(c1)C1CN(C)CCC1N2C(=O)Nc1cccc(Cl)c1 (stereo not drawn) | > 54 |
| CNC(=S)Nc1sc2c(c1C(=O)OC)CCC2 | 1.32 |
| O=C(/C=C/c1ccco1)Nc1ccc2nn(-c3ccccc3)nc2c1 | 3.24 |
| O=[N+]([O-])c1ccc(-c2c[nH]c(=S)[nH]2)cc1 | 0.8 |
| CN(C)c1ccc(NC(=O)CCCc2ccccc2)cc1 | > 54 |
| CC(=O)Nc1sc(N/N=C\c2ccco2)nc1-c1cccs1 | 10.6 |
| COc1cccc(C(=O)Nc2ccc3c(c2)C(=O)c2ccccc2C3=O)c1 | 2.12 |
| O=C(O)C1Nc2c(C(=O)N3CCOCC3)cccc2C2C=CCC12 (stereo not drawn) | > 54 |
| COc1ccc(Cc2nnc(NC(=O)Cc3cccs3)s2)cc1 | < 0.4 |
| CC1Oc2cc3c(-c4c(O)cc(O)c5c(O)c6c(cc45)OC(C)C(C)C6=O)c(O)cc(O)c3c(O)c2C(=O)C1C (stereo not drawn) | < 0.4 |
| COc1cc(NS(=O)(=O)c2ccc(NC(=S)NC(=O)c3sc4cc(F)ccc4c3Cl)cc2)nc(OC)n1 | > 54 |
| CC1=C(C#N)C(=O)NC(=O)/C1=C\c1ccc(-c2cc(C)c(C)cc2[N+](=O)[O-])o1 | < 0.4 |
| Oc1ccc(-c2cn3c(n2)SCC3)cc1O | 1.94 |
| N=c1c(C(=O)NCc2ccc(F)cc2)cc2c(=O)n3ccccc3nc2n1Cc1cccnc1 | 3.21 |
| CC1CCN(C(c2ccc(N(C)C)cc2)c2nnnn2C(C)(C)C)CC1 (stereo not drawn) | 12.5 |

| Compound | IC50 [µM] |
| --- | --- |
| CCCOc1ncnc2c1[nH]c1ccccc12 | > 54 |
| N=C1/C(=C\c2ccc(-c3cccc(C(=O)O)c3)o2)C(=O)N=C2SC=C(c3ccccc3)N12 | 1.3 |
| CCCCn1c(NCc2ccc(N(C)C)cc2)nc2ccccc21 | 1.14 |
| CC(=O)c1ccc(-n2c(CCC(=O)O)ccc2-c2cccs2)cc1 | > 54 |
| Cc1ccc(S(=O)(=O)/N=C2/C=C(C3C(=O)CC(C)(C)CC3=O)C(=O)c3ccccc32)cc1 | 2.87 |
| O=C1C2C3C=CC(C2C(=O)N1c1cccc(O)c1)C1C2C(=O)N(c4cccc(O)c4)C(=O)C2C31 (stereo not drawn) | > 54 |
| CCOC(=O)C1=C(C)NC2=C(C(=O)CC(C)(C)C2)C1c1ccc2c(c1)CCCN2C (stereo not drawn) | > 54 |
| COc1cc(/C=N\Nc2nc(-c3ccc(C)cc3)c(NC(C)=O)s2)ccc1O | > 54 |
| Cc1cc(C)c2c(c1)C1C=CCC1C(c1ccc(S(=O)(=O)N3CCOCC3)cc1)N2 (stereo not drawn) | 2.05 |
| COc1cnn(-c2ccccc2)c(=O)c1SCc1ccc(Cl)cc1Cl | > 54 |
| Cc1ccc(N=Nc2ccc(O)c(/C=N\NC(=O)c3ccc(N)cc3)c2)cc1C | 2.24 |
| CCOc1ccc2nc(NC(=O)c3cccc(-c4cc5ccccc5oc4=O)c3)sc2c1 | 3.75 |
| O=S(=O)(Nc1cc(Sc2ncn[nH]2)c(O)c2ccccc12)c1ccccc1 | < 0.4 |
| CCOC(=O)c1cc(C(O)(C(=O)OC)C(F)(F)F)c(/N=C/N(C)C)o1 (stereo not drawn) | > 54 |
| O=C(Nc1ccc(N2CCCC2)cc1)c1ccccc1F | 6.9 |
| O=C(NC1CC1)c1cc(-c2ccco2)nc2ccccc12 | < 0.4 |
| CCCCc1[nH]nc2c1C1(C(=O)N(CC)c3ccccc31)C(C#N)=C(N)O2 (stereo not drawn) | > 54 |
| Cc1cccc(NC(=O)c2cccs2)n1 | > 54 |
| Nc1cccnc1Sc1cc(Cl)c(Cl)cc1Cl | > 54 |
| COc1cc(/C=C/c2nc3ccccc3c(=O)n2-c2cccc(O)c2)ccc1O | 10.5 |
| Cc1cc(-c2nc3c4c5c(sc4[nH]c(=O)n3n2)CCC5)c(C)o1 | < 0.4 |
| O=C(O)CCN1C(=O)/C(=C\c2ccc(-c3nc4ccccc4s3)o2)SC1=S | < 0.4 |
| O=C(NCCO)Nc1ccc2nc(-c3ccco3)c(-c3ccco3)nc2c1 | < 0.4 |
| COc1ccc2[nH]c3c(C)c4ccncc4c(C)c3c2c1 | < 0.4 |
| CCOC(=O)C1CCN(c2nc(N)c3c(N)nc(SCC(=O)O)cc3c2C#N)CC1 | < 0.4 |
| N#C/C(=C(/O)c1ccc(-c2cccc([N+](=O)[O-])c2)o1)c1nc2ccccc2s1 | 5.71 |
